Patent US4775685A, “2,4-diphenyl-1,3-dioxanes” (Imperial Chemical Industries PLC, priority 1985, dated 1988)

What was measured:
TXA2 = molecular target: T1, TXA2 (Oryctolagus cuniculus, UniProt Q6WQI8); assay: Test (a): rabbit aortal strip model, TXA2 antagonism; conditions: (+0.05) for (i)-(iii)
T1 construct: agonist TXA2 (from rabbit platelet-rich plasma) or U46619
T1 sequence (Q6WQI8 1-233): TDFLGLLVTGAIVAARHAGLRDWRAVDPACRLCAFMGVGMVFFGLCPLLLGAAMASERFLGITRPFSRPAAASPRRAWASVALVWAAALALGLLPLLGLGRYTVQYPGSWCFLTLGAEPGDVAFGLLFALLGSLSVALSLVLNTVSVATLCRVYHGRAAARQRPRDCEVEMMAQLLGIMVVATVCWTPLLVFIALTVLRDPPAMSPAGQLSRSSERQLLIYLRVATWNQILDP
Method: As stated earlier, the compounds of formula I are antagonists of one or more of the actions of TXA2, for example certain of its actions on blood platelets, the vasculature and/or the lung.
(a) The rabbit aortal strip model devised by Piper and Vane (Nature, 1969, 223, 29-35) using as agonist a freshly prepared sample of TXA2, generated by addition of arachidonic acid (25 μg) to citrated, platelet rich rabbit plasma (250 μl ) and allowing the mixture to aggregate fully over 90 seconds before use; alternatively the TXA2 mimetic agent known as U46619 (described by R. L. Jones et alia in "Chemistry, Biochemistry and Pharmacological Activity of Prostanoids" edited by S. M. Roberts and F. Scheinmann, at page 211; Pergamon Press, 1979) may be used as the agonist; and […]

[1] = molecular target: T2, U46619 stimulated platelet aggregation (Homo sapiens, UniProt P21731); assay: Test (b): blood platelet aggregation test (U46619, human citrated platelet-rich plasma); assay type: cell-based
T2 construct: aggregating human, citrated, platelet-rich plasma by addition of the TXA2 mimetic agent U46619; endogenous in cells; host or cells: human platelets in citrated platelet-rich plasma
T2 sequence (P21731 1-343): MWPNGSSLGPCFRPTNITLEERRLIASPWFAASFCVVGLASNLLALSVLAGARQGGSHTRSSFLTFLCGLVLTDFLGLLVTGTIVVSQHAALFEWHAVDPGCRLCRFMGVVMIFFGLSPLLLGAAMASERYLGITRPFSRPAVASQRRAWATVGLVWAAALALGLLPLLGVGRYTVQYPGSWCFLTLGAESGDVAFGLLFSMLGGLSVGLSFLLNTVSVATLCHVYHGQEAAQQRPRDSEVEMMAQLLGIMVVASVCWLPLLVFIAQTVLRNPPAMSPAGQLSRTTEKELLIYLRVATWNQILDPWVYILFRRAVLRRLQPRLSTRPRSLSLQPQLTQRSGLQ
Excerpt: (b) a blood platelet aggregation test based on that described by Born (Nature, 1962, 194, 927-929) and involving:
(i) aggregating human, citrated, platelet-rich plasma by addition of the TXA2 mimetic agent U46619 so that a dose-response curve is generated;
(iii) calculating a KB value indicating potency of TXA2 antagonism for the test compound, averaged over several concentrations, from the calculated 50% response value for U46619 aggregation in the presence and absence of test compound; and […]

SMILES | pA2 (TXA2) | Kb [1] [nM]
O=C(O)CCC/C=C\C[C@@H]1CO[C@H](c2ccccc2Cl)O[C@@H]1c1ccccc1 (relative stereo) [(iv), 5(Z)-7-([2,4,5-cis]-2-o-chlorophenyl-4-phenyl-1,3-dioxan-5-yl)heptenoic acid, reference compound] | 6.22 | 
N#Cc1ccc([C@H]2OC[C@@H](C/C=C\CCCC(=O)O)[C@@H](c3ccccc3)O2)cc1 (relative stereo) [(v), 5(Z)-7([2,4,5-cis]-2-p-cyanophenyl-4-phenyl-1,3-dioxan-5-yl)heptenoic acid, reference compound] | 5.65 | 
O=C(O)CC/C=C\C[C@@H]1CO[C@H](c2ccccc2Cl)O[C@@H]1c1ccccc1O (relative stereo) [compound (i), 4(Z)-6-([2,4,5-cis]-2-o-chlorophenyl-4-o-hydroxyphenyl-1,3-dioxan-5-yl)hexenoic acid] | 8.02 | 
N#Cc1ccccc1[C@H]1OC[C@@H](C/C=C\CCC(=O)O)[C@@H](c2ccccc2O)O1 (relative stereo) [compound (ii), 4(Z)-6-([2,4,5-cis]-2-o-cyanophenyl-4-o-hydroxyphenyl-1,3-dioxan-5-yl)hexenoic acid] | 8.09 | 0.834
N#Cc1ccc([C@H]2OC[C@@H](C/C=C\CCC(=O)O)[C@@H](c3ccccc3O)O2)cc1 (relative stereo) [compound (iii)] | 7.45 | 5.49
